Values joined by “and” are separate entries in the source; they are usually repeats but may differ in a detail not shown here. Identical values can stand only once. Like-named read-outs stand apart in the source and are kept apart here.

Series [1] is described as follows: Particle size determination by dry method (Malvern Mastersizer 2000, Scirocco 2000 dry unit). Conditions: for d10 / d50 / d90: not micronized, as obtained by the process.
Experimental: Rasagiline mesylate is further micronized using conventional micronization techniques. After micronization, the sample is preferably passed through 100 mesh sieve and the particle size is measured using a Malvern Mastersizer 2000 dry unit, Scirocco 2000 which is commercially available from Malvern Instruments Ltd., United Kingdom.
On series [2], the source says:
The present inventors have conducted extensive research work for solving the problem of agglomerization of micronized Rasagiline or salt thereof.

The conditions of series [3]: wet method.
This is another data set of the same source.
The mark [4] stands for this setting: Pack-1 (Glass bottle), after one month.
[5] abbreviates: Pack-1 (Glass bottle), micronized sample (initial).
The mark [6] stands for this setting: Pack-2 (PET bottle), after one month.
Where [7] appears, read: Pack-2 (PET bottle), micronized sample (initial).
The mark [8] stands for this setting: room temperature, glass bottle or PET bottle, about one month.
Setting [9] is: after micronization, dry method.
[10] abbreviates: before micronization, dry method.

As for `Br.C#CCN[C@@H]1CCc2ccccc21` [R(+)-Rasagiline hydrobromide, (1R)-2,3-dihydro-N-2-propynyl-1H-indane-1-amine hydrobromide], the “size of 90% of the total amount by volume of particles” value in series [1] (micronized, dry method) was “less than 20 microns”. Also, in series [1], the d10 is 2-9 μ, the d50 is given as 10-20 μ and the d90 is recorded as 40-80 μ.
As to `C#CCN[C@@H]1CCc2ccccc21.CS(=O)(=O)O` [R(+)-Rasagiline mesylate, (1R)-2,3-dihydro-N-2-propynyl-1H-indane-1-amine mesylate], in series [2] (setting [4]), the D10 amounted to 1.70, the D50 stood at 3.66 and the D90 was 7.55. In series [2] (setting [5]), the D10 stood at 1.40, the D50 came out at 3.33 and the D90 is reported as 7.88. Also, in series [2] (setting [6]), the D10 is 1.41, the D50 amounted to 2.97 and the D90 is 5.64. In addition, in series [2] (setting [7]), the D10 worked out at 1.43, the D50 stood at 2.90 and the D90 is 5.74. For the same compound, in series [2] (setting [8]), the “Agglomeration of the particles on storage” value is reported as “no agglomeration of the particles was observed”; the “Change in XRPD pattern and particle size on storage” value is “no change in XRPD pattern and particle size”. For the same compound, in series [1] (setting [9]), the “Particle Size Distribution D10” value is 1.44 micron and 1.43 micron; the “Particle Size Distribution D50” value is 3.00 micron and 2.90 micron; the “Particle Size Distribution D90” value was 5.94 micron and 5.74 micron. Besides, in series [1] (setting [10]), the “Particle Size Distribution D10” value was 3.65 micron and 3.18 micron; the “Particle Size Distribution D50” value is 15.27 micron and 13.33 micron; the “Particle Size Distribution D90” value was 57.38 micron and 47.11 micron. In series [1] (micronized), the “particle size of 50% of particles” value is on record as “less than or equal to 4 μ” and the “particle size of 90% of particles” value is given as “less than or equal to 9 μ”. In addition, in series [1], the d10 is recorded as 2-9 μ, the d50 is listed as 10-20 μ and the d90 is recorded as 40-80 μ. Further, the “Particle Size Distribution D90” value in series [3] (after micronization) is 796.35 micron and 1007.18 micron. Besides, in series [3] (before micronization), the “Particle Size Distribution D50” value is 141.23 micron and 174.70 micron; the “Particle Size Distribution D90” value was 590.45 micron and 832.14 micron.
As for `C#CCN[C@@H]1CCc2ccccc21.Cl` [R-(+)-Rasagiline hydrochloride, (1R)-2,3-dihydro-N-2-propynyl-1H-indane-1-amine hydrochloride], the “size of 90% of the total amount by volume of particles” value (micronized) is listed as “less than 20 microns”. Further, the “size of 90% particles” value (not micronized) is recorded as “less than 500 microns”.

The record behind these values is patent US8741962B2, “Process for preparation of Rasagiline and salts thereof” (USV Limited, priority 2009, dated 2014).
